This is an account of results in patent publication US11203591B2, “Substituted 6-azabenzimidazole compounds” (Gilead Sciences, Inc., priority 2018, dated 2021).

SMILES strings stand for the structures.

For the first assay, the target named is human HPK1 (MAP4K1) (Homo sapiens (Human), UniProt Q92918). In words: HPK1 IC50 Assay (TR-FRET peptide phosphorylation). Conditions: 0.15 nM HPK1, 10 μM ATP, 1 μM STK S1 peptide substrate; geometric mean. It counts as biochemical. The gist of the method: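 Pre-activated, dually phosphorylated baculovirus-expressed HPK1 kinase domain (0.15 nM) preincubated 15 min with compound, then reacted 3 h at 25° C with 10 μM ATP and 1 μM STK S1 peptide in BES pH 7.0 buffer. Phosphopeptide read by TR-FRET (665/620 nm); four-parameter fit, geometric-mean IC50.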
Chain of human HPK1 (MAP4K1) (Q92918 17-274): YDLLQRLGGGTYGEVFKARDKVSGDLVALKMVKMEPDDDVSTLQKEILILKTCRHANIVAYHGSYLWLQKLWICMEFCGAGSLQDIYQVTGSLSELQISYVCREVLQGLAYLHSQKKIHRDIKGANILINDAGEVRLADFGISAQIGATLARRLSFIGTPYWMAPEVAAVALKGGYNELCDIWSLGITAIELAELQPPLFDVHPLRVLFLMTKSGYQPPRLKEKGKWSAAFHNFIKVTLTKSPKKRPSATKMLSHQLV
On the technique in general: TR-FRET usually uses a lanthanide donor and a delayed reading to cut background.
With `Cc1cc(F)c(Nc2nc(-c3ccc4c(c3)N([C@H]3C[C@@](C)(N5CCCCC5)C3)C(=O)C4(C)C)cc3ncn(C(C)C)c23)cc1C(=O)NCC(F)F` [Example 266, N-(2,2-difluoroethyl)-5-((6-(3,3-dimethyl-1-((1s,3s)-3-methyl-3-(piperidin-1-yl)cyclobutyl)-2-oxoindolin-6-yl)-3-isopropyl-3H-imidazo[4,5-c]pyridin-4-yl)amino)-4-fluoro-2-methylbenzamide], the IC50 – broadly, the concentration needed to halve the response being measured – worked out at 0.06 nM.

The assay is the same for the next values; noted with them: recombinant HPK1 kinase domain 0.15 nM, 10 μM ATP, 1 μM STK S1 peptide; geometric mean of multiple experiments.
Take `Cc1c(C(=O)NC2(C(F)F)CC2)cc(Nc2nc(-c3cnc4c(c3)N([C@H]3C[C@@H](N5CCCCC5)C3)C(=O)C4(C)C)cc3ncn(C(C)C)c23)c(F)c1F` [Example 246, N-(1-(difluoromethyl)cyclopropyl)-5-((6-(3,3-dimethyl-2-oxo-1-((1s,3s)-3-(piperidin-1-yl)cyclobutyl)-2,3-dihydro-1H-pyrrolo[3,2-b]pyridin-6-yl)-3-isopropyl-3H-imidazo[4,5-c]pyridin-4-yl)amino)-3,4-difluoro-2-methylbenzamide]: the IC50 turned out to be 0.04 nM.

As to `CCNC(=O)c1cc(Nc2nc(-c3cnc4c(c3)N([C@H]3C[C@@](C)(N5CCCCCC5)C3)C(=O)C4(C)C)cc3ncn(C(C)C)c23)c(F)c(F)c1Cl` [Example 247, 5-((6-(1-((1s,3s)-3-(azepan-1-yl)-3-methylcyclobutyl)-3,3-dimethyl-2-oxo-2,3-dihydro-1H-pyrrolo[3,2-b]pyridin-6-yl)-3-isopropyl-3H-imidazo[4,5-c]pyridin-4-yl)amino)-2-chloro-N-ethyl-3,4-difluorobenzamide], the IC50 worked out at 0.05 nM.

`CC(C)n1cnc2cc(-c3cnc4c(c3)N([C@H]3C[C@@](C)(N5CCCCCC5)C3)C(=O)C4(C)C)nc(Nc3cc(C(=O)NCC(F)F)c(Cl)c(F)c3F)c21` [Example 248, 5-((6-(1-((1s,3s)-3-(azepan-1-yl)-3-methylcyclobutyl)-3,3-dimethyl-2-oxo-2,3-dihydro-1H-pyrrolo[3,2-b]pyridin-6-yl)-3-isopropyl-3H-imidazo[4,5-c]pyridin-4-yl)amino)-2-chloro-N-(2,2-difluoroethyl)-3,4-difluorobenzamide]: the IC50 came out at 0.05 nM.

Regarding `CC(C)n1cnc2cc(-c3cnc4c(c3)N([C@H]3C[C@@](C)(N5CCCCCC5)C3)C(=O)C4(C)C)nc(Nc3cc(C(=O)NC4(CF)CC4)c(Cl)c(F)c3F)c21` [Example 249, 5-((6-(1-((1s,3s)-3-(azepan-1-yl)-3-methylcyclobutyl)-3,3-dimethyl-2-oxo-2,3-dihydro-1H-pyrrolo[3,2-b]pyridin-6-yl)-3-isopropyl-3H-imidazo[4,5-c]pyridin-4-yl)amino)-2-chloro-3,4-difluoro-N-(1-(fluoromethyl)cyclopropyl)benzamide], the IC50 turned out to be 0.04 nM.

In the case of `CC(C)n1cnc2cc(-c3cnc4c(c3)N([C@H]3C[C@@](C)(N5CCCCC5)C3)C(=O)C4(C)C)nc(Nc3cc(C(=O)NCC(F)F)c(Cl)c(F)c3F)c21` [Example 250, 2-chloro-N-(2,2-difluoroethyl)-5-((6-(3,3-dimethyl-1-((1s,3s)-3-methyl-3-(piperidin-1-yl)cyclobutyl)-2-oxo-2,3-dihydro-1H-pyrrolo[3,2-b]pyridin-6-yl)-3-isopropyl-3H-imidazo[4,5-c]pyridin-4-yl)amino)-3,4-difluorobenzamide], the 50% inhibitory concentration (IC50) was 0.1 nM.

As for `CCNC(=O)c1cc(Nc2nc(-c3cnc4c(c3)N([C@H]3C[C@@](C)(N5CCC6CC6C5)C3)C(=O)C4(C)C)cc3ncn(C(C)C)c23)c(F)c(F)c1Cl` (some centres unmarked) [Example 251, 5-((6-(1-((1s,3s)-3-(3-azabicyclo[4.1.0]heptan-3-yl)-3-methylcyclobutyl)-3,3-dimethyl-2-oxo-2,3-dihydro-1H-pyrrolo[3,2-b]pyridin-6-yl)-3-isopropyl-3H-imidazo[4,5-c]pyridin-4-yl)amino)-2-chloro-N-ethyl-3,4-difluorobenzamide], the IC50 is 0.04 nM.

Turning to `CCNC(=O)c1cc(Nc2nc(-c3cnc4c(c3)N(C3CC(C)(N5CCC6C[C@@H]6C5)C3)C(=O)C4(C)C)cc3ncn(C(C)C)c23)c(F)c(F)c1Cl` (some centres unmarked) [Example 252, 5-((6-(1-((1s,3s)-3-(3-azabicyclo[4.1.0]heptan-3-yl)-3-methylcyclobutyl)-3,3-dimethyl-2-oxo-2,3-dihydro-1H-pyrrolo[3,2-b]pyridin-6-yl)-3-isopropyl-3H-imidazo[4,5-c]pyridin-4-yl)amino)-2-chloro-N-ethyl-3,4-difluorobenzamide], the IC50 turned out to be 0.05 nM.

As for `CC(C)NC(=O)c1cc(Nc2nc(-c3cnc4c(c3)N([C@H]3C[C@@](C)(N5CCC6CC6C5)C3)C(=O)C4(C)C)cc3ncn(C(C)C)c23)c(F)c(F)c1Cl` (some centres unmarked) [Example 254, 5-((6-(1-((1s,3s)-3-(3-azabicyclo[4.1.0]heptan-3-yl)-3-methylcyclobutyl)-3,3-dimethyl-2-oxo-2,3-dihydro-1H-pyrrolo[3,2-b]pyridin-6-yl)-3-isopropyl-3H-imidazo[4,5-c]pyridin-4-yl)amino)-2-chloro-3,4-difluoro-N-isopropylbenzamide], the IC50 came out at 0.05 nM.

For the compound `CCNC(=O)c1cc(Nc2nc(-c3cc4c(nc3F)C(C)(C)C(=O)N4[C@H]3C[C@@](C)(N4CCC5CC5C4)C3)cc3ncn(C(C)C)c23)c(F)c(F)c1C` (some centres unmarked) [Example 255, 5-((6-(1-((1s,3s)-3-(3-azabicyclo[4.1.0]heptan-3-yl)-3-methylcyclobutyl)-5-fluoro-3,3-dimethyl-2-oxo-2,3-dihydro-1H-pyrrolo[3,2-b]pyridin-6-yl)-3-isopropyl-3H-imidazo[4,5-c]pyridin-4-yl)amino)-N-ethyl-3,4-difluoro-2-methylbenzamide], the IC50 turned out to be 0.1 nM.

`CC(C)n1cnc2cc(-c3cnc4c(c3)N([C@H]3C[C@@](C)(N5CCC6CC6C5)C3)C(=O)C4(C)C)nc(Nc3cc(C(=O)NCC(F)F)c(Cl)c(F)c3F)c21` (some centres unmarked) [Example 256, 5-((6-(1-((1s,3s)-3-(3-azabicyclo[4.1.0]heptan-3-yl)-3-methylcyclobutyl)-3,3-dimethyl-2-oxo-2,3-dihydro-1H-pyrrolo[3,2-b]pyridin-6-yl)-3-isopropyl-3H-imidazo[4,5-c]pyridin-4-yl)amino)-2-chloro-N-(2,2-difluoroethyl)-3,4-difluorobenzamide]: the IC50 came to 0.05 nM.

`CC(C)n1cnc2cc(-c3cnc4c(c3)N(C3CC(C)(N5CCC6C[C@@H]6C5)C3)C(=O)C4(C)C)nc(Nc3cc(C(=O)NC4(CF)CC4)c(Cl)c(F)c3F)c21` (some centres unmarked) [Example 258, 5-((6-(1-((1s,3s)-3-(3-azabicyclo[4.1.0]heptan-3-yl)-3-methylcyclobutyl)-3,3-dimethyl-2-oxo-2,3-dihydro-1H-pyrrolo[3,2-b]pyridin-6-yl)-3-isopropyl-3H-imidazo[4,5-c]pyridin-4-yl)amino)-2-chloro-3,4-difluoro-N-(1-(fluoromethyl)cyclopropyl)benzamide]: the IC50 amounted to 0.09 nM.

Consider `CC(C)n1cnc2cc(-c3cnc4c(c3)N(C3CC(C)(N5CCC6C[C@@H]6C5)C3)C(=O)C4(C)C)nc(Nc3cc(C(=O)NC4(C(F)F)CC4)c(Cl)c(F)c3F)c21` (some centres unmarked) [Example 261, 5-((6-(1-((1s,3s)-3-(3-azabicyclo[4.1.0]heptan-3-yl)-3-methylcyclobutyl)-3,3-dimethyl-2-oxo-2,3-dihydro-1H-pyrrolo[3,2-b]pyridin-6-yl)-3-isopropyl-3H-imidazo[4,5-c]pyridin-4-yl)amino)-2-chloro-N-(1-(difluoromethyl)cyclopropyl)-3,4-difluorobenzamide], for which the IC50 stood at 0.09 nM.

As for `CC(C)n1cnc2cc(-c3cnc4c(c3)N(C3CC(C)(N5CCC6C[C@@H]6C5)C3)C(=O)C4(C)C)nc(Nc3cc(C(=O)NC4(C(F)F)CC4)c(Cl)c(F)c3F)c21` (some centres unmarked) [Example 262, 5-((6-(1-((1s,3s)-3-(3-azabicyclo[4.1.0]heptan-3-yl)-3-methylcyclobutyl)-3,3-dimethyl-2-oxo-2,3-dihydro-1H-pyrrolo[3,2-b]pyridin-6-yl)-3-isopropyl-3H-imidazo[4,5-c]pyridin-4-yl)amino)-2-chloro-N-(1-(difluoromethyl)cyclopropyl)-3,4-difluorobenzamide], the IC50 turned out to be 0.1 nM.

`CC(C)n1cnc2cc(-c3cnc4c(c3)N([C@H]3C[C@@](C)(N5C[C@H]6CC[C@@H]5C6)C3)C(=O)C4(C)C)nc(Nc3cc(C(=O)NC4(C(F)F)CC4)c(Cl)c(F)c3F)c21` [Example 263, 5-((6-(1-((1S,3s)-3-((1R,4S)-2-azabicyclo[2.2.1]heptan-2-yl)-3-methylcyclobutyl)-3,3-dimethyl-2-oxo-2,3-dihydro-1H-pyrrolo[3,2-b]pyridin-6-yl)-3-isopropyl-3H-imidazo[4,5-c]pyridin-4-yl)amino)-2-chloro-N-(1-(difluoromethyl)cyclopropyl)-3,4-difluorobenzamide]: the IC50 was 0.05 nM.

Regarding `Cc1c(F)c(Nc2nc(-c3cnc4c(c3)N([C@H]3C[C@@](C)(N5CCCCC5)C3)C(=O)C4(C)C)cc3ncn(C(C)C)c23)cc(C(=O)NC2(C(F)F)CC2)c1Cl` [Example 264, 2-chloro-N-(1-(difluoromethyl)cyclopropyl)-5-((6-(3,3-dimethyl-1-((1s,3s)-3-methyl-3-(piperidin-1-yl)cyclobutyl)-2-oxo-2,3-dihydro-1H-pyrrolo[3,2-b]pyridin-6-yl)-3-isopropyl-3H-imidazo[4,5-c]pyridin-4-yl)amino)-4-fluoro-3-methylbenzamide], the IC50 amounted to 0.2 nM.

In the case of `CC(C)n1cnc2cc(-c3cnc4c(c3)N([C@H]3C[C@@](C)(N5CCCCC5)C3)C(=O)C4(C)C)nc(Nc3cc(C(=O)NC4CC4)c(Cl)c(F)c3F)c21` [Example 265, 2-chloro-N-cyclopropyl-5-((6-(3,3-dimethyl-1-((1s,3s)-3-methyl-3-(piperidin-1-yl)cyclobutyl)-2-oxo-2,3-dihydro-1H-pyrrolo[3,2-b]pyridin-6-yl)-3-isopropyl-3H-imidazo[4,5-c]pyridin-4-yl)amino)-3,4-difluorobenzamide], the 50% inhibitory concentration (IC50) was determined as 0.06 nM.
